In patent publication US5409935A, “Xanthine derivatives for the treatment of secondary nerve cell damage and functional disorders after cranio-cerebral traumas” (Hoechst Aktiengesellschaft, priority 1991, dated 1995):

Legend:
peritoneal macrophages = assay: Flow-cytometric free radical formation (oxidation of Dihydrorhodamine 123 to Rhodamine 123) in peritoneal macrophages, conA-stimulated; type: cell-based, white male Wistar rats; details: for fluorescence, conA ± Comp. 1: 50 μM compound 1, conA-stimulated; for inhibition at 50 µM: conA-stimulated, * p < 0.05
Protocol: Peritoneal macrophages were obtained by peritoneal washing of white male Wistar rats aged 12 weeks with 10 ml of HBS-Hanks (Serva Feinbiochemica, Heidelberg). […] All cells were stored for a period of at most 2 hours after preparation until flow-cytrometric analysis at 4° C.
The cell volume and two fluorescences were simultaneously measured in about 10,000 cells per sample using a FACScan flow cytometer (Becton Dickinson, San Jose, Calif., USA). […] The flow cytometer was calibrated with standardized yellow-green-fluorescing microspheres of 4.3 μm diameter (Polysciences, St. Goar, F.R.G.).
(§1) Each measurement is based on the individual measurements of the cells contained in a sample (about 10,000). In order to keep the experimental boundary conditions as constant as possible, several experiments were carried out successively on the same day. In such a test series, in each case four different samples of an experimental group and their control were measured by flow cytometry at variously defined points of time. As a rule, 3-4 test series were carried out per experimental group.

microglia cells = assay: Flow-cytometric free radical formation (Rhodamine 123 fluorescence) in cultured microglia cells; type: cell-based, newborn rats; details: for inhibition at 50 µM: Rattus norvegicus, Microglia, * p < 0.05
Protocol: In order to measure the intracellular generation of oxygen free radicals in peritoneal macrophages and in cultures of activated microglia, a flow-cytometric method was used (Rothe, Oser, Valet, Naturwissenschaften, 75, 354, 1988). Specifically, the free radical formation in individual viable cells was determined by measuring the intracellular oxidation of the membrane-permeable and non-fluorescent Dihydrorhodamine 123 (DHR; Eugene, Ore., USA) to the membrane-impermeable and intracellularly "trapped", green fluorescent Rhodamine 123.
DHR was dissolved in a 43.3 mM stock solution in N,N-dimethylformamide (DMF; Merck, Darmstadt, F.R.G.). The method is also suitable for the individual and simultaneous measurement of various subpopulations within a heterogeneous cell population; it therefore allows the exclusion of contaminating populations. Moreover, in another series of tests the identification of the cell type to be measured in each case was simultaneously confirmed during the flow-cytometric measurement by specific immunocytochemical antibody staining. Peritoneal macrophages were obtained by peritoneal washing of white male Wistar rats aged 12 weeks with 10 ml of HBS-Hanks (Serva Feinbiochemica, Heidelberg). The cells were sedimented at 200 g and 20° C. for 5 min and resuspended in HBS-Hanks (4×10^6 cells/ml). All cells were stored for a period of at most 2 hours after preparation until flow-cytrometric analysis at 4° C.
Microglia cultures from the brain of newborn rats were prepared (Giulian & Baker, J. Neuroscience, 1986, 6:2163-2178). After mechanical dissociation of the tissue in Dulbecco's modified Eagle's medium (Sigma Chemie, DMEM), supplemented with 2 g/l of NaHCO3 and 20% heat-inactivated fetal calf serum, the primary cultures were kept in […] culture flasks at 3% pCO2 and 37° C. for 2 to 4 weeks. Cells which grew on the surface of a continuous cell layer were removed by shaking, pelleted and resuspended (3×10^6 cells/ml) in Hepes Hanks buffered salt solution (5 mM Hepes, 0.15M NaCl, pH 7.35; Serva Feinbiochemica, Heidelberg, F.R.G.). In order to test the effect of the compound 1, in the experimental groups the DHR-loaded cells were incubated with 50 μM of the compound according to the invention for 15, 25, 35, 45 and 60 min, to be precise with or without parallel stimulation of free radical formation by concanavalin A (conA, 100 μM/ml). No active substance was added to the respective control groups.
The cell volume and two fluorescences were simultaneously measured in about 10,000 cells per sample using a FACScan flow cytometer (Becton Dickinson, San Jose, Calif., USA). Rhodamine 123 green fluorescence (500-530 nm) and propidium iodide red fluorescence (590-700 nm) were measured with excitation by an argon laser with a wavelength of 488 nm. The flow cytometer was calibrated with standardized yellow-green-fluorescing microspheres of 4.3 μm diameter (Polysciences, St. Goar, F.R.G.).
as §1

[1] = arterial circulatory disorders, known; cited from earlier work
[2] = known; cited from earlier work

Structure (SMILES): CCCn1cnc2c1c(=O)n(CCCCC(C)=O)c(=O)n2C [compound 1, 1-(5-oxohexyl)-3-methyl-7-n-propylxanthine]
- suppressive effect on free radical formation, dose dependence (peritoneal macrophages; 10 μM and 50 μM): dose-dependent
- stimulatory effect of conA in the presence of compound 1 (peritoneal macrophages; 50 μM compound 1): blocked
- fluorescence, conA ± Comp. 1 (peritoneal macrophages; 15 min): 9.0875 apparatusspecific units
- fluorescence, conA ± Comp. 1 (peritoneal macrophages; 25 min): 8.0867 apparatusspecific units
- fluorescence, conA ± Comp. 1 (peritoneal macrophages; 35 min): 25.5 apparatusspecific units
- fluorescence, conA ± Comp. 1 (peritoneal macrophages; 45 min): 31.755 apparatusspecific units
- significance of effect of compound 1 (peritoneal macrophages; 50 μM, all measurements with incubation times over 15 min): significant (p<0.05 in the t-test)
- inhibition at 50 µM (peritoneal macrophages; Rattus norvegicus, Peritoneal macrophage, 25 min, 50 μM): 60%
- inhibition at 10 µM (peritoneal macrophages; Rattus norvegicus, Peritoneal macrophage, 35 min, 10 μM, maximum conA activation, p<0.05 in the t-test): 21%
- inhibition at 50 µM (peritoneal macrophages; Rattus norvegicus, Peritoneal macrophage, 35 min, 50 μM): 37%
- inhibition at 50 µM (peritoneal macrophages; Rattus norvegicus, Peritoneal macrophage, 0.75 h, 50 μM, 45 min): 32%
- inhibition of free radical formation (microglia cells; 50 μM): clear inhibition
- fluorescence, Compound 1 (microglia cells; 50 μM, 15 min): 2060.6 apparatusspecific units
- fluorescence, Compound 1 (microglia cells; 50 μM, 25 min): 2121.3 apparatusspecific units
- fluorescence, Compound 1 (microglia cells; 50 μM, 35 min): 1170.4 apparatusspecific units
- maximum depression of cellular Rhodamine 123 fluorescence (microglia cells; 50 μM, 35 min): about one-third
- fluorescence, Compound 1 (microglia cells; 50 μM, 45 min): 1556.9 apparatusspecific units
- fluorescence, Compound 1 (microglia cells; 50 μM, 60 min): 910.4 apparatusspecific units
- significance of effect of compound 1 (microglia cells; 50 μM, incubation times of over 15 min): significant (p<0.05 in the t-test)
- inhibition at 50 µM (microglia cells; 25 min): 19%
- inhibition at 50 µM (microglia cells; 35 min): 27%
- inhibition at 50 µM (microglia cells; 0.75 h, 45 min): 23%
- inhibition at 50 µM (microglia cells; 1 h, 60 min): 27%
- vasodilating action [1]: vasodilating action
- toxicity [2]: low toxicity
